From the supplement of paper PMC4862054 come the findings set out here.

Experiment [1] deals with CAL-120. The experiment is described as follows: drug sensitivity score (DSS), CellTox Green (DSS (AUC-based score)); higher = stronger drug effect (viability inhibition or cytotoxicity); extreme values may be limits of the assay. Conditions: incubation time: 72 h. The essentials:
(§1)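 Each compound occupied 5 concentrations in 10-fold steps over its own 10,000-fold range in 384-well plates, into which breast cancer cell lines were seeded as 20 µl suspension. Following 72 h of incubation, CellTox Green fluorescence (485/520 nm) was measured, and CellTiter-Glo luminescence was measured after 10 min at room temperature. Plates were individually normalised to 0.1 % DMSO and a positive kill control. From the area under the fitted dose-response curve, a drug sensitivity score was calculated.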

Experiment [2] relates to HCC1599. The experiment is described as above. Conditions: incubation time: 72 h. The essentials:
as §1

Experiment [3] deals with MDA-MB-468. The experiment is described as above. Conditions: incubation time: 72 h. The essentials: as §1
Another experiment concerns HCC1143. Particulars: 72 h. The essentials: (§2)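 Seeding of breast cancer cell lines (20 µl suspension) was done into 384-well plates pre-loaded with compound at 5 concentrations, 10-fold apart, covering a compound-specific 10,000-fold range. The plates were incubated for 72 h, read for CellTox Green fluorescence (485/520 nm), and then read for CellTiter-Glo luminescence after 10 min at room temperature. Every plate was normalised to 0.1 % DMSO and a positive kill control. Curve fitting gave the EC50, censored at the top concentration.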

For experiment [4], the system named is DU-4475. Conditions: 72 h. The essentials: as §2
Experiment [5] concerns CAL-85-1. Particulars: 72 h. The essentials:
as §2

Experiment [6] has as its system CAL-120. Conditions: 72 h. The essentials:
as §2

Experiment [7] deals with SK-BR-3. Conditions: 72 h. The essentials: as §2
The next experiment deals with CAL-148. Conditions: 72 h. The essentials: as §2
Experiment [8] has as its system BT-474. Conditions: 72 h. The essentials:
as §2

For experiment [9], the system named is MDA-MB-436. Conditions: 72 h. The essentials:
as §2

Experiment [10] relates to HCC1937. Particulars: 72 h. The essentials:
as §2

The subject of the next experiment is MCF-10A. Conditions: 72 h. The essentials: as §2
For experiment [11], the system named is HCC1599. Particulars: 72 h. The essentials:
as §2

Experiment [12] has as its system BT-549. Conditions: 72 h. The essentials: as §2
The test system of the next experiment is HDQ-P1. Conditions: 72 h. The essentials: as §2
For experiment [13], the system named is Hs578T. Conditions: 72 h. The essentials:
as §2

The subject of experiment [14] is MDA-MB-231. Particulars: 72 h. The essentials:
as §2

Another experiment relates to MFM-223. Particulars: 72 h. The essentials:
as §2

For experiment [15], the system named is CAL-51. Conditions: 72 h. The essentials:
as §2

Experiment [16] concerns MDA-MB-453. Particulars: 72 h. The essentials:
as §2

Experiment [17] concerns CAL-120. Particulars: 72 h. The essentials:
(§3)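 Viability of breast cancer cell lines was measured with CellTiter-Blue after 72 h of incubation on compound-loaded 384-well plates. Cells were seeded in 20 µl onto compound dissolved in 5 µl medium, and 2.5 µl reagent was added for 2 h at 37 °C before reading at 560/590 nm. EC50 was fitted from percent-inhibition dose-response data censored at the highest concentration, normalised per plate to vehicle and a positive kill control, with zero drug sensitivity score rows dropped.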
The source holds these as a separate data set.

In experiment [18] the test system is SK-BR-3. Conditions: 72 h. The essentials:
as §3
The source holds these as a separate data set.

The test system of experiment [19] is MDA-MB-231. Particulars: 72 h. The essentials:
as §3
This is another data set of the same source.

Experiment [20] deals with DU-4475. Conditions: 72 h. The essentials:
as §3
This is another data set of the same source.

For experiment [21], the system named is CAL-85-1. Conditions: 72 h. The essentials:
as §3
This is another data set of the same source.

For experiment [22], the system named is CAL-51. Particulars: 72 h. The essentials: as §3
This is another data set of the same source.

The test system of experiment [23] is MDA-MB-453. Conditions: 72 h. The essentials: as §3
The source holds these as a separate data set.

For experiment [24], the system named is BT-474. Conditions: 72 h. The essentials: as §3
The source holds these as a separate data set.

The subject of experiment [25] is HCC1937. Conditions: 72 h. The essentials:
as §3
This is another data set of the same source.

Experiment [26] relates to Hs578T. Particulars: 72 h. The essentials:
as §3
The source holds these as a separate data set.

In experiment [27] the test system is MDA-MB-436. Conditions: 72 h. The essentials: as §3
The source holds these as a separate data set.

Experiment [28] relates to BT-549. Particulars: 72 h. The essentials: as §3
This is another data set of the same source.

Experiment [29] deals with MDA-MB-468. Conditions: 72 h. The essentials:
as §3

Consider `CCOC(=O)CCNc1cc(N2CCc3ccccc3CC2)nc(-c2ccccn2)n1` [GSK-J4], for which the values for the drug sensitivity score in the experiment on CAL-120 [1], in the experiment on HCC1599 [2] and in the experiment on MDA-MB-468 [3] were 8.01, 2.51 and 12.3, respectively. Also, the “EC50, CellTiter-Glo” value was determined as 8.69 µM in the experiment with HCC1143; 7.17 µM in the experiment on DU-4475 [4]; 5.18 µM in the experiment with CAL-85-1 [5]; 12.1 µM in the experiment with CAL-120 [6]; 11.6 µM in the experiment with SK-BR-3 [7]; 3.44 µM in the experiment with CAL-148. The “EC50, CellTiter-Glo” value in the experiment with BT-474 [8] stood at 9.14 µM; with MDA-MB-436 [9] it was 4.33 µM; in the experiment on HCC1937 [10], 8.34 µM; in the experiment on MCF-10A, 9.27 µM; with HCC1599 [11] it was 9.37 µM; in the experiment on BT-549 [12], 1 µM. In addition, the “EC50, CellTiter-Glo” value in the experiment with HDQ-P1 amounted to 11.7 µM; in the experiment with Hs578T [13], 12.2 µM; with MDA-MB-231 [14], 6.15 µM; in the experiment on MFM-223, 7.94 µM; in the experiment on CAL-51 [15] it was 1.34 µM; in the experiment on MDA-MB-453 [16], 2.96 µM.
As for `COc1cc(OC2CCN(C)CC2)ccc1Nc1ncc2c(n1)n(C1CCCC1)c(=O)n2C` [AZ 3146], the “EC50, CellTiter-Blue viability” value in the experiment with CAL-120 [17] is more than 10 µM; in the experiment with SK-BR-3 [18], 1.05 µM; in the experiment on MDA-MB-231 [19] it was 8.03 µM; in the experiment on DU-4475 [20] it was 5.18 µM; in the experiment on CAL-85-1 [21], 3.24 µM; in the experiment on CAL-51 [22], 1.39 µM. For the same molecule, the “EC50, CellTiter-Blue viability” value in the experiment with MDA-MB-453 [23] stood at 6.4 µM. The drug sensitivity score worked out at 0 in the experiment on CAL-120 [1], 2.26 in the experiment on HCC1599 [2] and 0 in the experiment with MDA-MB-468 [3]. The “EC50, CellTiter-Glo” value was 3.78 µM with CAL-85-1 [5]; 0.97 µM in the experiment with SK-BR-3 [7]; 2.62 µM with BT-474 [8]; 9.26 µM in the experiment with MCF-10A; 8.24 µM in the experiment with HCC1599 [11]; 1.01 µM in the experiment with CAL-51 [15].
For `COCC1(CO)C(=O)C2CCN1CC2` (configuration not stated) [Prima-1 Met], the “EC50, CellTiter-Blue viability” value in the experiment on BT-474 [24] was 4.53 µM; with HCC1937 [25], 0.476 µM; in the experiment with Hs578T [26], more than 10 µM. The drug sensitivity score in the experiment on CAL-120 [1], in the experiment with HCC1599 [2] and in the experiment on MDA-MB-468 [3] was 0 each time. Also, the “EC50, CellTiter-Glo” value with BT-549 [12] stood at 2.9 µM.
As to `O=P1(N(CCCl)CCCl)NCCCO1` (configuration not stated) [Cyclophosphamide], the “EC50, CellTiter-Blue viability” value in the experiment on MDA-MB-436 [27] was more than 40 µM. In addition, the drug sensitivity score with CAL-120 [1] and in the experiment with HCC1599 [2] was 0 each time.
In the case of `CN(C)c1nc(N(C)C)nc(N(C)C)n1` [Altretamine], the “EC50, CellTiter-Blue viability” value was determined as 9.54 µM in the experiment with CAL-85-1 [21] and 6.88 µM in the experiment with MDA-MB-453 [23]. In addition, the drug sensitivity score in the experiment with CAL-120 [1], with HCC1599 [2] and with MDA-MB-468 [3] was 0 each time.
Consider `N#Cc1ccc(COC[C@H]2O[C@@H](n3c(NCc4ccc(Cl)c(Cl)c4)nc4c(N)ncnc43)[C@H](O)[C@@H]2O)cc1`, for which the “EC50, CellTiter-Blue viability” value in the experiment on SK-BR-3 [18] was 6.1 µM; in the experiment with MDA-MB-436 [27], 1.39 µM; in the experiment with HCC1937 [25], 0.619 µM; in the experiment on BT-549 [28], 5.19 µM; in the experiment with MDA-MB-231 [19], 2.87 µM; in the experiment with MDA-MB-468 [29], 6.91 µM. For the same molecule, the “EC50, CellTiter-Blue viability” value in the experiment with DU-4475 [20] turned out to be 2.32 µM. Besides, the drug sensitivity score in the experiment with CAL-120 [1], in the experiment with HCC1599 [2] and with MDA-MB-468 [3] was 0 each time. The “EC50, CellTiter-Glo” value was 2.64 µM in the experiment with HCC1143; 1.17 µM in the experiment on DU-4475 [4]; 2.58 µM in the experiment on SK-BR-3 [7]; 0.857 µM in the experiment with BT-474 [8]; more than 10 µM with HCC1937 [10]; 2.65 µM in the experiment on MCF-10A. Besides, the “EC50, CellTiter-Glo” value with BT-549 [12] is 1.52 µM; in the experiment with HDQ-P1, 3.55 µM; in the experiment on Hs578T [13] it was 1.74 µM; in the experiment with MFM-223, 4.53 µM.
